The results in this text go back to patent US6635637B2, “Cyclic oxyguanidine protease inhibitors” (Dimensional Pharmaceuticals, Inc., priority 2000, dated 2003).

Structures can show the parent of a compound that is named as a salt.

As a reminder, the Ki is the equilibrium dissociation constant of an inhibitor or competing ligand from its target.

This assay deals with T1, human α-thrombin (Homo sapiens, UniProt P00734).
T1 construct: Purified human α-thrombin; purchased Enzyme Research Laboratories (South Bend, Ind.)
The experiment in a line: In vitro inhibition of purified thrombin (p-nitroanilide substrate hydrolysis, Ki determination). Type of assay: biochemical. The settings on record: purified human α-thrombin 0.5 nM; substrate N-succinyl-Ala-Ala-Pro-Arg-p-nitroanilide 32 μM; 37° C.; pH 7.5. The source says:
Reagents: All buffer salts were obtained from Sigma Chemical Company (St. Louis, Mo.), and were of the highest purity available. The enzyme substrates, N—N-benzoyl-Phe-Val-Arg-p-nitroanilide (Sigma B7632), N-benzoyl-Ile-Glu-Gly-Arg-p-nitroanilide hydrochloride (Sigma B2291), N-p-Tosyl-Gly-Pro-Lys-p-nitroanilide (Sigma T6140), N-succinyl-Ala-Ala-Pro-Phe-p-nitroanilide (Sigma S7388) and N-CBZ-Val-Gly-Arg-p-nitroanilide (Sigma C7271) were obtained from Sigma. N-succinyl-Ala-Ala-Pro-Arg-p-nitroanilide (BACHEM L-1720) and N-succinyl-Ala-Ala-Pro-Val-p-nitroanilide (BACHEM L-1770) were obtained from BACHEM (King of Prussia, Pa.).
Human α-thrombin, human factor Xa and human plasmin were obtained from Enzyme Research Laboratories (South Bend, Ind.). Bovine α-chymotrypsin (Sigma C4129), bovine trypsin (Sigma T8642) and human kidney cell urokinase (Sigma U5004) were obtained from Sigma. Human leukocyte elastase was obtained from Elastin Products (Pacific, Mo.).
Ki Determinations: All assays are based on the ability of the test compound to inhibit the enzyme catalyzed hydrolysis of a peptide p-nitroanilide substrate. […] In general, substrate concentrations are lower than the experimentally determined value for Km. […]
In a typical Ki determination, into each well of a 96 well plate is pipetted 280 μL of substrate solution, 10 μL of test compound solution, and the plate allowed to thermally equilibrate at 37° C. in a Molecular Devices plate reader for >15 minutes. Reactions were initiated by the addition of a 10 μL aliquot of enzyme and the absorbance increase at 405 nm is recorded for 15 minutes. […] The ratio of the velocity (rate of change in absorbance as a function of time) for a sample containing no test compound is divided by the velocity of a sample containing test compound, and is plotted as a function of test compound concentration. The data are fit to a linear regression, and the value of the slope of the line calculated. The inverse of the slope is the experimentally determined Ki value. […]
On to `Cc1cc(OCC2CCN(C(=N)N)OC2)cc(OS(=O)(=O)c2ccccc2S(C)(=O)=O)c1` (stereo not drawn) [Example 1, 3-[(2-Amidino(1,2-oxazaperhydroin-5-yl))methoxy]-5-methylphenyl 2-(methylsulfonyl)benzenesulfonate Trifluoroacetate], for which the Ki came to 7 nM.
Under `CS(=O)(=O)c1ccccc1S(=O)(=O)Oc1cc(Cl)cc(OCC2CCN(C(=N)N)OC2)c1` (stereo not drawn) [Example 2, 3-[(2-Amidino(1,2-oxazaperhydroin-5-yl))methoxy]-5-chlorophenyl 2-(methylsulfonyl)benzenesulfonate trifluoroacetate] stands 13 nM; under `C=CCN(C(=O)c1cc(Cl)cc(OCC2CCN(C(=N)N)OC2)c1)C1CCCC1` (stereo not drawn) [Example 3, 5-{[5-Chloro-3-(N-cyclopentyl-N-prop-2-enylcarbamoyl)phenoxy]methyl}-1,2-oxazaperhydroine-2-carboxamidine trifluoroacetate], 8 nM.
